Experimental data published in US20230257354A1, “NOVEL HETEROCYCLIC COMPOUNDS” (Hoffmann-La Roche Inc., priority 2020, published 2023).

These compounds were tested on Acinetobacter baumannii ATCC17978 (assay: Antimicrobial susceptibility testing, 90% growth inhibitory concentration (IC90) determination, ATCC17978). Details: Iso-Sensitest broth, OD 600 nm over 16 h, 35±2° C., read-out: ATCC 17978 IC90.
Type: cell-based
Method: Antimicrobial Susceptibility Testing: 90% Growth Inhibitory Concentration (IC90) Determination The in vitro antimicrobial activity of the compounds was determined according to the following procedure: The assay used a 10-points Iso-Sensitest broth medium to measure quantitatively the in vitro activity of the compounds against Acinetobacter baumannii ATCC17978 or ATCC17961. Stock compounds in DMSO were serially twofold diluted (e.g. range from 50 to 0.097 μM final concentration) in 384 wells microtiter plates and inoculated with 49 μl the bacterial suspension in Iso-Sensitest medium to have a final cell concentration of ˜5×10^(5) CFU/ml in a final volume/well of 50 ul/well. Microtiter plates were incubated at 35±2° C. Bacterial cell growth was determined with the measurement of optical density at X=600 nm each 20 minutes over a time course of 16 h. Growth inhibition was calculated during the logarithmic growth of the bacterial cells with determination of the concentration inhibiting 50% (IC50) and 90% (IC90) of the growth. Table 1 provides the 90% growth inhibitory concentrations (IC90) in micromoles per liter of the compounds of present invention obtained against the strain Acinetobacter baumannii ATCC17978.
For `COc1ccc(-c2cnc(C(=O)Nc3ccc(C(=O)NC4CCN(C(=O)[C@@H]5C[C@@H](O)CN5)CC4)c(Cl)c3)n2C)c(F)c1F` [Example B7, N-[3-chloro-4-[[1-[(2S,4R)-4-hydroxypyrrolidine-2-carbonyl]-4-piperidyl]carbamoyl]phenyl]-5-(2,3-difluoro-4-methoxy-phenyl)-1-methyl-imidazole-2-carboxamide], the IC90 was 82 nM. `COc1ccc(-c2cnc(C(=O)Nc3ccc(C(=O)NC4CCN(C(=O)CCOCCN)CC4)c(Cl)c3)n2C)c(F)c1F` [Example B8, N-[4-[[1-[3-(2-aminoethoxy)propanoyl]-4-piperidyl]carbamoyl]-3-chloro-phenyl]-5-(2,3-difluoro-4-methoxy-phenyl)-1-methyl-imidazole-2-carboxamide;formic acid] gave an IC90 of 140 nM. In the case of `COc1ccc(-c2cnc(C(=O)Nc3ccc(C(=O)N[C@H]4C[C@@H](NC(=O)C5CC(CN)C5)C4)c(Cl)c3)n2C)c(F)c1F` (stereo partly shown) [Example B9, N-[4-[[3-[[3-(aminomethyl)cyclobutanecarbonyl]amino]cyclobutyl]carbamoyl]-3-chloro-phenyl]-5-(2,3-difluoro-4-methoxy-phenyl)-1-methyl-imidazole-2-carboxamide;formic acid], the IC90 is reported as 210 nM. With `Cn1c(-c2ccc(OC(F)F)c(F)c2F)cnc1C(=O)Nc1ccc(C(=O)NCCC2CN(C(=O)CCN)C2)c(Cl)c1` [Example B10, N-[4-[2-[1-(3-aminopropanoyl)azetidin-3-yl]ethylcarbamoyl]-3-chloro-phenyl]-5-[4-(difluoromethoxy)-2,3-difluoro-phenyl]-1-methyl-imidazole-2-carboxamide;2,2,2-trifluoroacetic acid] the IC90 was 140 nM. For `Cn1c(-c2ccc(OC(F)F)c(F)c2F)cnc1C(=O)Nc1ccc(C(=O)NCCCNC(=O)CCN)c(Cl)c1` [Example B11, N-[4-[3-(3-aminopropanoylamino)propylcarbamoyl]-3-chloro-phenyl]-5-[4-(difluoromethoxy)-2,3-difluoro-phenyl]-1-methyl-imidazole-2-carboxamide;2,2,2-trifluoroacetic acid], the IC90 was 230 nM. `CCc1cc(NC(=O)c2ncc(-c3ccc(OC(F)F)c(F)c3F)n2C)ccc1C(=O)NCCCNC(=O)C1CCNCC1` [Example B12, N-[3-[[4-[[5-[4-(difluoromethoxy)-2,3-difluoro-phenyl]-1-methyl-imidazole-2-carbonyl]amino]-2-ethyl-benzoyl]amino]propyl]piperidine-4-carboxamide;formic acid] showed an IC90 of 760 nM. Work on `Cc1cc(NC(=O)c2ncc(-c3ccc(OCC#N)c(F)c3F)n2C)ccc1C(=O)NCCNC(=O)C1CCNCC1` [Example B13, N-[2-[[4-[[5-[4-(cyanomethoxy)-2,3-difluoro-phenyl]-1-methyl-imidazole-2-carbonyl]amino]-2-methyl-benzoyl]amino]ethyl]piperidine-4-carboxamide;formic acid] yielded an IC90 of 910 nM. `Cc1cc(NC(=O)c2ncc(-c3ccc(OCC#N)c(F)c3F)n2C)ccc1C(=O)NCCNC(=O)C1(O)CCNCC1` [Example B14, N-[2-[[4-[[5-[4-(cyanomethoxy)-2,3-difluoro-phenyl]-1-methyl-imidazole-2-carbonyl]amino]-2-methyl-benzoyl]amino]ethyl]-4-hydroxy-piperidine-4-carboxamide;formic acid] showed an IC90 of 990 nM. `Cn1c(-c2ccc(OCC#N)c(F)c2F)cnc1C(=O)Nc1ccc(C(=O)NCCNC(=O)C2CCNCC2)c(Cl)c1` [Example B15, N-[2-[[2-chloro-4-[[5-[4-(cyanomethoxy)-2,3-difluoro-phenyl]-1-methyl-imidazole-2-carbonyl]amino]benzoyl]amino]ethyl]piperidine-4-carboxamide;2,2,2-trifluoroacetic acid] gave an IC90 of 360 nM. With `Cn1c(-c2ccc(OCC#N)c(F)c2F)cnc1C(=O)Nc1ccc(C(=O)NCCNC(=O)C2(O)CCNCC2)c(Cl)c1` [Example B16, N-[2-[[2-chloro-4-[[5-[4-(cyanomethoxy)-2,3-difluoro-phenyl]-1-methyl-imidazole-2-carbonyl]amino]benzoyl]amino]ethyl]-4-hydroxy-piperidine-4-carboxamide;2,2,2-trifluoroacetic acid] the IC90 was 350 nM. `COc1ccc(-c2cnc(C(=O)Nc3ccc(C(=O)NC4CN(C(=O)CN)C4)c(Cl)c3)n2C)c(F)c1F` [Example B17, N-[4-[[1-(2-aminoacetyl)azetidin-3-yl]carbamoyl]-3-chloro-phenyl]-5-(2,3-difluoro-4-methoxy-phenyl)-1-methyl-imidazole-2-carboxamide;formic acid] showed an IC90 of 84 nM. `COc1ccc(-c2cnc(C(=O)Nc3ccc(C(=O)NCC4CN(C(=O)CN)C4)c(Cl)c3)n2C)c(F)c1F` [Example B18, N-[4-[[1-(2-aminoacetyl)azetidin-3-yl]methylcarbamoyl]-3-chloro-phenyl]-5-(2,3-difluoro-4-methoxy-phenyl)-1-methyl-imidazole-2-carboxamide;formic acid] was tested, and the IC90 was 240 nM. With `COc1ccc(-c2cnc(C(=O)Nc3ccc(C(=O)N[C@H]4C[C@@H](C(=O)NCCN)C4)c(Cl)c3)n2C)c(F)c1F` [Example B19, N-[4-[[3-(2-aminoethylcarbamoyl)cyclobutyl]carbamoyl]-3-chloro-phenyl]-5-(2,3-difluoro-4-methoxy-phenyl)-1-methyl-imidazole-2-carboxamide;formic acid] the IC90 was 160 nM. Work on `COc1ccc(-c2cnc(C(=O)Nc3ccc(C(=O)N[C@H]4C[C@@H](C(=O)N5CC(N)C5)C4)c(Cl)c3)n2C)c(F)c1F` [Example B20, N-[4-[[3-(3-aminoazetidine-1-carbonyl)cyclobutyl]carbamoyl]-3-chloro-phenyl]-5-(2,3-difluoro-4-methoxy-phenyl)-1-methyl-imidazole-2-carboxamide;formic acid] yielded an IC90 of 210 nM. Work on `COc1ccc(-c2cnc(C(=O)Nc3ccc(C(=O)N[C@H]4C[C@@H](C(=O)N[C@H]5C[C@@H](N)C5)C4)c(Cl)c3)n2C)c(F)c1F` [Example B21, N-[4-[[3-[(3-aminocyclobutyl)carbamoyl]cyclobutyl]carbamoyl]-3-chloro-phenyl]-5-(2,3-difluoro-4-methoxy-phenyl)-1-methyl-imidazole-2-carboxamide;2,2,2-trifluoroacetic acid] yielded an IC90 of 98 nM. `CCc1cc(NC(=O)c2ncc(-c3ccc(OC)c(F)c3F)n2C)ccc1C(=O)N[C@H]1C[C@@H](C(=O)NCCN)C1` [Example B22, N-[4-[[3-(2-aminoethylcarbamoyl)cyclobutyl]carbamoyl]-3-ethyl-phenyl]-5-(2,3-difluoro-4-methoxy-phenyl)-1-methyl-imidazole-2-carboxamide;2,2,2-trifluoroacetic acid] showed an IC90 of 320 nM. `CCc1cc(NC(=O)c2ncc(-c3ccc(OC)c(F)c3F)n2C)ccc1C(=O)NC1CN(C(=O)CN)C1` [Example B23, N-[4-[[1-(2-aminoacetyl)azetidin-3-yl]carbamoyl]-3-ethyl-phenyl]-5-(2,3-difluoro-4-methoxy-phenyl)-1-methyl-imidazole-2-carboxamide;formic acid] showed an IC90 of 300 nM. In the case of `Cc1cc(NC(=O)c2ncc(-c3ccc(OCC#N)c(F)c3F)n2C)ccc1C(=O)NCCNC(=O)[C@H]1C[C@@](C)(O)CN1` [Example B24, 5-[4-(cyanomethoxy)-2,3-difluoro-phenyl]-N-[4-[2-[[(2R,4R)-4-hydroxy-4-methyl-pyrrolidine-2-carbonyl]amino]ethylcarbamoyl]-3-methyl-phenyl]-1-methyl-imidazole-2-carboxamide;formic acid], the IC90 is reported as 1000 nM. Work on `CC[C@]1(O)CN[C@@H](C(=O)NCCNC(=O)c2ccc(NC(=O)c3ncc(-c4ccc(OCC#N)c(F)c4F)n3C)cc2C)C1` [Example B25, 5-[4-(cyanomethoxy)-2,3-difluoro-phenyl]-N-[4-[2-[[(2R,4R)-4-ethyl-4-hydroxy-pyrrolidine-2-carbonyl]amino]ethylcarbamoyl]-3-methyl-phenyl]-1-methyl-imidazole-2-carboxamide;formic acid] yielded an IC90 of 870 nM. `COc1ccc(-c2cnc(C(=O)Nc3ccc(C(=O)NCCNC(=O)[C@H]4C[C@@](C)(O)CN4)c(C)c3)n2C)c(F)c1F` [Example B26, 5-(2,3-difluoro-4-methoxy-phenyl)-N-[4-[2-[[(2R,4R)-4-hydroxy-4-methyl-pyrrolidine-2-carbonyl]amino]ethylcarbamoyl]-3-methyl-phenyl]-1-methyl-imidazole-2-carboxamide;formic acid] gave an IC90 of 1200 nM. `CC[C@]1(O)CN[C@@H](C(=O)NCCNC(=O)c2ccc(NC(=O)c3ncc(-c4ccc(OC)c(F)c4F)n3C)cc2C)C1` [Example B27, 5-(2,3-difluoro-4-methoxy-phenyl)-N-[4-[2-[[(2R,4R)-4-ethyl-4-hydroxy-pyrrolidine-2-carbonyl]amino]ethylcarbamoyl]-3-methyl-phenyl]-1-methyl-imidazole-2-carboxamide;formic acid] was tested, and the IC90 was 1100 nM. Compound `COc1ccc(-c2cnc(C(=O)Nc3ccc(C(=O)NCCNC(=O)N[C@@H]4CNC[C@H]4O)c(C)c3)n2C)c(F)c1F` [Example B28, 5-(2,3-difluoro-4-methoxy-phenyl)-N-[4-[2-[[(3R,4R)-4-hydroxypyrrolidin-3-yl]carbamoylamino]ethylcarbamoyl]-3-methyl-phenyl]-1-methyl-imidazole-2-carboxamide;formic acid] has an IC90 of 510 nM.
